The kinase profiling compilation of Christmann-Franck et al. (2016)

Assays:
Assay in all cases: radiometric filter-binding kinase assay, Kinaseprofiler
[1] = biological target: CDK3 CCNE1 (human) (UniProt Q00526+P24864); details: compound 1.0 µM; ATP 200 µM
[2] = biological target: PTK2B (human) (UniProt Q14289); details: compound 1.0 µM; ATP 90 µM
[3] = biological target: EPHB3 (human) (UniProt P54753); details: compound 1.0 µM; ATP 90 µM
[4] = biological target: PLK3 (human) (UniProt Q9H4B4); details: compound 1.0 µM; ATP 70 µM
[5] = biological target: PRKD1 (human) (UniProt Q15139); details: compound 1.0 µM; ATP 45 µM
[6] = biological target: LCK (human) (UniProt P06239); details: compound 1.0 µM; ATP 90 µM
[7] = biological target: NTRK2 (human) (UniProt Q16620); details: compound 1.0 µM; ATP 90 µM
[8] = biological target: MAPK13 (human) (UniProt O15264); details: compound 1.0 µM; ATP 15 µM
[9] = biological target: PRKD2 (human) (UniProt Q9BZL6); details: compound 1.0 µM; ATP 155 µM
[10] = biological target: EPHA8 (human) (UniProt P29322); details: compound 1.0 µM; ATP 200 µM
[11] = biological target: EPHA7 (human) (UniProt Q15375); details: compound 1.0 µM; ATP 90 µM
[12] = biological target: JAK2 JH1 catalytic (human) (UniProt O60674); details: compound 1.0 µM; ATP 45 µM
[13] = system: PAK2 (human), Q13177 [L150F, P225T, V383I; A339 del]; details: compound 1.0 µM; ATP 90 µM
[14] = biological target: PDGFRB (human) (UniProt P09619); details: compound 1.0 µM; ATP 200 µM
[15] = biological target: FGFR3 (human) (UniProt P22607); details: compound 1.0 µM; ATP 15 µM
[16] = biological target: RIPK2 (human) (UniProt O43353); details: compound 1.0 µM; ATP 120 µM
[17] = biological target: PAK4 (human) (UniProt O96013); details: compound 1.0 µM; ATP 10 µM
[18] = biological target: FYN (human) (UniProt P06241); details: compound 1.0 µM; ATP 70 µM
[19] = biological target: DAPK1 (human) (UniProt P53355); details: compound 1.0 µM; ATP 70 µM
[20] = biological target: STK3 (human) (UniProt Q13188); details: compound 1.0 µM; ATP 155 µM
[21] = biological target: MAP3K5 (human) (UniProt Q99683); details: compound 1.0 µM; ATP 200 µM
[22] = biological target: PTK6 (human) (UniProt Q13882); details: compound 1.0 µM; ATP 15 µM
[23] = biological target: EGFR (human) (UniProt P00533); details: compound 1.0 µM; ATP 10 µM
[24] = biological target: MYLK (human) (UniProt Q15746); details: compound 1.0 µM; ATP 70 µM
[25] = biological target: MAP2K7 (human) (UniProt O14733); details: compound 1.0 µM; ATP 10 µM
[26] = biological target: MKNK2 (human) (UniProt Q9HBH9); details: compound 1.0 µM; ATP 120 µM
[27] = system: MAPK9 (human), P45984 [S51N]; details: compound 1.0 µM; ATP 45 µM
[28] = system: TEK (human), Q02763 [Q939H/Q940H]; details: compound 1.0 µM; ATP 200 µM
[29] = biological target: NEK2 (human) (UniProt P51955); details: compound 1.0 µM; ATP 120 µM
[30] = biological target: SRPK1 (human) (UniProt Q96SB4); details: compound 1.0 µM; ATP 10 µM
[31] = biological target: BRSK1 (human) (UniProt Q8TDC3); details: compound 1.0 µM; ATP 200 µM
[32] = biological target: MAPK3 (human) (UniProt P27361); details: compound 1.0 µM; ATP 70 µM
[33] = biological target: EPHB1 (human) (UniProt P54762); details: compound 1.0 µM; ATP 200 µM
[34] = biological target: JAK3 JH1 catalytic (human) (UniProt P52333); details: compound 1.0 µM; ATP 10 µM
[35] = biological target: PRKCB1 (human) (UniProt P05771); details: compound 1.0 µM; ATP 10 µM
[36] = biological target: MAPK12 (human) (UniProt P53778); details: compound 1.0 µM; ATP 15 µM
[37] = biological target: STK4 (human) (UniProt Q13043); details: compound 1.0 µM; ATP 90 µM
[38] = biological target: INSRR (human) (UniProt P14616); details: compound 1.0 µM; ATP 200 µM

Sequence of BRSK1 (human) (Q8TDC3 whole entry, looked up): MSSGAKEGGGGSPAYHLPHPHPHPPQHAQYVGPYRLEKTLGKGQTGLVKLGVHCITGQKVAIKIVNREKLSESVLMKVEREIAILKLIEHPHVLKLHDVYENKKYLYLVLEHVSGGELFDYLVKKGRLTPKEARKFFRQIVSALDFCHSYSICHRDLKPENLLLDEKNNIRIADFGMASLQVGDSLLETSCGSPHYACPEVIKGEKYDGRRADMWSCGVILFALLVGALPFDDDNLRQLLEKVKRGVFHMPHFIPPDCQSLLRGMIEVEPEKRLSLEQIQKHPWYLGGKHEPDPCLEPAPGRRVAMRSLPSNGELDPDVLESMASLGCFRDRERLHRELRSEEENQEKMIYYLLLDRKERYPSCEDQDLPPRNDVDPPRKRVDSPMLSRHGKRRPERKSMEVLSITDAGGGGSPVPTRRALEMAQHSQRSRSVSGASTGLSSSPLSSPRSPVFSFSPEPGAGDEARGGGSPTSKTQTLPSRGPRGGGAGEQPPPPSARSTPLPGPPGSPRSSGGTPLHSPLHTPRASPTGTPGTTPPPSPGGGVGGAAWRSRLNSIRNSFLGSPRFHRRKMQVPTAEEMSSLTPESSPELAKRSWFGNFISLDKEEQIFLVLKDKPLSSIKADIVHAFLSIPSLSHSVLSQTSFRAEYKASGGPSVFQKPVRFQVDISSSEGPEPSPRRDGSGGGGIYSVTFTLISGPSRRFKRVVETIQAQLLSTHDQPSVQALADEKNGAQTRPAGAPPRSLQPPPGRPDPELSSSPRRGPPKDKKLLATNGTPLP
Sequence of STK4 (human) (Q13043 whole entry, looked up): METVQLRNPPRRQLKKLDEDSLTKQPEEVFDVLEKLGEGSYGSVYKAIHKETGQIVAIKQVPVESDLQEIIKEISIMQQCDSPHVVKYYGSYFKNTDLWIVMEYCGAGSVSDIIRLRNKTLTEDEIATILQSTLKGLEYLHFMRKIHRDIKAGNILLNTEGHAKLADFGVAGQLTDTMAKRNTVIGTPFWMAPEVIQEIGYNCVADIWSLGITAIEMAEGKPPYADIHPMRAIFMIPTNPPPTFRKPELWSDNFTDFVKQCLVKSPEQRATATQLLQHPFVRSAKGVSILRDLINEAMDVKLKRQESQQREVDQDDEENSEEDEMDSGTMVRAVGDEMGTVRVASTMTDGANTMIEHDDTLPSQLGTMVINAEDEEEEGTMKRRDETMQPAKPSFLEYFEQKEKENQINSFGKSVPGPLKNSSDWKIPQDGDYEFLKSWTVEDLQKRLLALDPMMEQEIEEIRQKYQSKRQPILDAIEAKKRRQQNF
Sequence of JAK3 JH1 catalytic (human) (P52333 whole entry, looked up): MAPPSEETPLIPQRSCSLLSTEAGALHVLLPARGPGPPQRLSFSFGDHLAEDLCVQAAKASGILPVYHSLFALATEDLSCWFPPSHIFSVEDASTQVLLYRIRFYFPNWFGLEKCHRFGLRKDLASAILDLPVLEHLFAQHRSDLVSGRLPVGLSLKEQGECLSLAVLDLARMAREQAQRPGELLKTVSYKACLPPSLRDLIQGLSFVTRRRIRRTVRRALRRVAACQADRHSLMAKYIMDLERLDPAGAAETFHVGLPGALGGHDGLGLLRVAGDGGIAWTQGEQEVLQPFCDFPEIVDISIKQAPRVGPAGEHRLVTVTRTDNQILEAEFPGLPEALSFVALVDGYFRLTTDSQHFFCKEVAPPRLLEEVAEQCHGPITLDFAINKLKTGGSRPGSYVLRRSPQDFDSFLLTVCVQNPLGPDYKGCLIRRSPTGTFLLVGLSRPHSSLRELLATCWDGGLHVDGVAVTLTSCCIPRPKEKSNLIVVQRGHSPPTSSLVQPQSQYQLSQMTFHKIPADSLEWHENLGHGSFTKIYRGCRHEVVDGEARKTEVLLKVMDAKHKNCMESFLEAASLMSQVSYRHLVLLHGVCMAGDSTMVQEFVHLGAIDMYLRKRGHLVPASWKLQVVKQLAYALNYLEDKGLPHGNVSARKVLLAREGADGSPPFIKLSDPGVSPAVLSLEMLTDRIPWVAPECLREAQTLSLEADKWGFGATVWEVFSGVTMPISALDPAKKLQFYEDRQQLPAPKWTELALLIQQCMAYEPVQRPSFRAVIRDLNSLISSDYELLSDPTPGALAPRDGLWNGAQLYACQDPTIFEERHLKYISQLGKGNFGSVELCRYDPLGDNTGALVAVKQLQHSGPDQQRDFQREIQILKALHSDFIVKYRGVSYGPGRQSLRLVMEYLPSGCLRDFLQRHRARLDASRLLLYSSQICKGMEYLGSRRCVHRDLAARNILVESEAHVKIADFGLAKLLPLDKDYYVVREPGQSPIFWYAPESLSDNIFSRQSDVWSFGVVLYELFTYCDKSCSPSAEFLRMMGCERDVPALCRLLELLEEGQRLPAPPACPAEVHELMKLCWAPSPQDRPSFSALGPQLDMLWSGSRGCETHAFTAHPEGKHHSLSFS
Sequence of MAPK3 (human) (P27361 whole entry, looked up): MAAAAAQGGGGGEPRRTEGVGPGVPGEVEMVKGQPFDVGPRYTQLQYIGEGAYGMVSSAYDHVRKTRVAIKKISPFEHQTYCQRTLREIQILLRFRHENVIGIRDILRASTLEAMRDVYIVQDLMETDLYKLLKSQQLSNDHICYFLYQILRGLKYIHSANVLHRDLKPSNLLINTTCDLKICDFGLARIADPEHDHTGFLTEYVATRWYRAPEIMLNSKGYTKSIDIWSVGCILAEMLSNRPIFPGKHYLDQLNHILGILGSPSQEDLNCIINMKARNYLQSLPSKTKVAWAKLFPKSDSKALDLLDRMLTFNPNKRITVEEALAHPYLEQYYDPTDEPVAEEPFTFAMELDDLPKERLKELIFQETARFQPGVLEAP
Sequence of FYN (human) (P06241 whole entry, looked up): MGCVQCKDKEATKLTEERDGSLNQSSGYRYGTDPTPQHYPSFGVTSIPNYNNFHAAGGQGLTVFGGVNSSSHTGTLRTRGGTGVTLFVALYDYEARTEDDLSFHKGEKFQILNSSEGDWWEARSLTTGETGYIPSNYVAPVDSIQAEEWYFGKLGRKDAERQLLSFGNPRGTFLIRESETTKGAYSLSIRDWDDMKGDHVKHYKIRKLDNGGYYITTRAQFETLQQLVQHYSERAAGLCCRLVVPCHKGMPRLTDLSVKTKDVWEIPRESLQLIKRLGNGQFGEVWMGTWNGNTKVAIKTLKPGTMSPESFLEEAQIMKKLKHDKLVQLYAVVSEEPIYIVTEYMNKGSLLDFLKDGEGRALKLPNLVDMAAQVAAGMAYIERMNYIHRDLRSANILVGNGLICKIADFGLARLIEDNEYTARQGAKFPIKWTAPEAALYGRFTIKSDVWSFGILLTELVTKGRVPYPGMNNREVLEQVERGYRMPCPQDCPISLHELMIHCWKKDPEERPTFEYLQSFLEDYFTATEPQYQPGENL
Sequence of NTRK2 (human) (Q16620 whole entry, looked up): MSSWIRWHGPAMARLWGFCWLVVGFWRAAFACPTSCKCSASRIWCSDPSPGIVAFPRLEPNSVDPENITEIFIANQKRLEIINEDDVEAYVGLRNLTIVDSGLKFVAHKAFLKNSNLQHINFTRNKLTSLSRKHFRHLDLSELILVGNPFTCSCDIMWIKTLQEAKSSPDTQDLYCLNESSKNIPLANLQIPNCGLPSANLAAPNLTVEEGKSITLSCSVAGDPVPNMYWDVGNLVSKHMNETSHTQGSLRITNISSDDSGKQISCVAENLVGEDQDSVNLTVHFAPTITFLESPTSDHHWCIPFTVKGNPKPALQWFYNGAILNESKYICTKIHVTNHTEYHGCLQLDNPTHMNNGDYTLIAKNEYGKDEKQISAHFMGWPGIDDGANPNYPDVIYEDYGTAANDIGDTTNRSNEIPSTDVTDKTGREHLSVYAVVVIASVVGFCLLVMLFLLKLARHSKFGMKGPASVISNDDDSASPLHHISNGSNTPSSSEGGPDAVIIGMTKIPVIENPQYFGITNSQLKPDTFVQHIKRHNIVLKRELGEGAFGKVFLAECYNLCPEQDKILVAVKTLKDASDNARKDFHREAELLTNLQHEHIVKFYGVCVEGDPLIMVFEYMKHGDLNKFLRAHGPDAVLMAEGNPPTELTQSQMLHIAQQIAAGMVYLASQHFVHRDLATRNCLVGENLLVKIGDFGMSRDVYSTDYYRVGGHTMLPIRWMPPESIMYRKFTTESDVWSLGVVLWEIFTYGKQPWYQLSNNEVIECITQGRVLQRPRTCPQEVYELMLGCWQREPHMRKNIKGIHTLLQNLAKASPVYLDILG
Sequence of PRKCB1 (human) (P05771 whole entry, looked up): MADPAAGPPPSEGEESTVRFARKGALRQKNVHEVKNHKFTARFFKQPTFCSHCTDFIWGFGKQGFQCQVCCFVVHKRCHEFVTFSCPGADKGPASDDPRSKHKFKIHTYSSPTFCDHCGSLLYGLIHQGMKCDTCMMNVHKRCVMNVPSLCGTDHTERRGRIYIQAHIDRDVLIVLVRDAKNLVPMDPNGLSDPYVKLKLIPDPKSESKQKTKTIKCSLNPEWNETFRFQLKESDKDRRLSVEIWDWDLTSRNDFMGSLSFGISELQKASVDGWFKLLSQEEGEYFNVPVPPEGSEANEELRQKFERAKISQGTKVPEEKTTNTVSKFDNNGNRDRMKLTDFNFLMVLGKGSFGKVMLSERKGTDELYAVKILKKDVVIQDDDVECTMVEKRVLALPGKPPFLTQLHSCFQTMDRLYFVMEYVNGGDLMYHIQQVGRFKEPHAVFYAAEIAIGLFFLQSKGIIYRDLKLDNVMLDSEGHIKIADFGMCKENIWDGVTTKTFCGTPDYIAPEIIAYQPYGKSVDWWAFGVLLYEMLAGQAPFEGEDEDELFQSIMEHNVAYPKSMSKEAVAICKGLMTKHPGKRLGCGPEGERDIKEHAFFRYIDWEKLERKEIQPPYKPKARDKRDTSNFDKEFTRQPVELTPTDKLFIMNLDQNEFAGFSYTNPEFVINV

residual activity [1]: 100%
residual activity [2]: 101%
residual activity [3]: 98%
residual activity [4]: 105%
residual activity [5]: 93%
residual activity [6]: 50%
residual activity [7]: 15%
residual activity [8]: 98%
residual activity [9]: 109%
residual activity [10]: 108%
residual activity [11]: 101%
residual activity [12]: 43%
residual activity [13]: 100%
residual activity [14]: 77%
residual activity [15]: 4%
residual activity [16]: 35%
residual activity [17]: 94%
residual activity [18]: 64%
residual activity [19]: 90%
residual activity [20]: 90%
residual activity [21]: 98%
residual activity [22]: 103%
residual activity [23]: 100%
residual activity [24]: 61%
residual activity [25]: 69%
residual activity [26]: 33%
residual activity [27]: 88%
residual activity [28]: 66%
residual activity [29]: 65%
residual activity [30]: 102%
residual activity [31]: 74%
residual activity [32]: 120%
residual activity [33]: 67%
residual activity [34]: 81%
residual activity [35]: 104%
residual activity [36]: 103%
residual activity [37]: 80%
residual activity [38]: 103%
SMILES: CN(C)S(=O)(=O)Nc1ccc2ccc3ncc(-c4cnn(C)c4)cc3c(=O)c2c1
